Assay type in all cases: cell-based
Test [1] concerns BT-474 cells (HER2 overexpressing cell line). Briefly: BT-474 cell proliferation inhibitory activity (CellTiter-Glo, 120 hours). The conditions noted are these: Homo sapiens. Put shortly:
(§1)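 Luminescent viability read-out, growth % vs control → GI50, n=3. Seeding: SK-BR-3/BT-474 5000 cells, 48 h pre-plating; N-87 5000, 24 h; HaCaT 3000, 24 h. Dose ranges: 0.2 nM–10 μM (SK-BR-3, BT-474; 3-fold), […]–5 μM (N-87; 5-fold), 0.8 nM–45 μM (HaCaT; 3-fold).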
In general terms: Cellular ATP, detected with luciferase, serves as a proxy for viable cell number.

Test [2] deals with N-87 cells (HER2 overexpressing cell line). As to the kind of experiment: N-87 cell proliferation inhibitory activity (CellTiter-Glo, 72 hours). The method, then: To evaluate the cell proliferation inhibitory activity of the compound according to the present invention on HER2 and EGFR kinases, the following method was performed using HER2 overexpressing cell lines (SK-BR-3, BT-474, and N-87) and EGFR expressing cell line (HaCaT).
McCOY'S 5A supplemented with 10% FBS was used for SK-BR-3 cells, RPMI-1640 medium supplemented with 20% FBS was used for BT-474 cancer cells, and RPMI-1640 medium supplemented with 10% FBS was used for N-87 cancer cells. DMEM supplemented with 10% FBS was used for HaCaT cells.
For SK-BR-3 cells, 5000 cells were aliquoted into each well of a white clear bottom 96 well plate (Corning) 48 hours before treatment with the compounds of Examples. For BT-474 cells, 5000 cells were aliquoted into each well of a white clear bottom 96 well plate (Corning) 48 hours before treatment with the compounds of Examples. For N-87 cells, 5000 cells were aliquoted into each well of a white clear bottom 96 well plate (Corning) 24 hours before treatment with the compounds of Examples. For HaCaT cells, 3000 cells were aliquoted into each well of a white clear bottom 96 well plate (Corning) 24 hours before treatment with the compounds of Examples. For SK-BR-3 cells and BT-474 cells, the compounds of Examples were diluted in dimethyl sulfoxide (three-fold dilution, a total of 11 concentrations) and injected each in an amount of 1 μl to a final concentration of 0.2 nM to 10 μM. For N-87 cells, the compounds of Examples were diluted in dimethyl sulfoxide (five-fold dilution, a total of 11 concentrations) and injected each in an amount of 0.5 μl to a final concentration of […] to 5 μM. For HaCaT cells, the compounds of Examples were diluted in dimethyl sulfoxide (three-fold dilution, a total of 11 concentrations) and injected each in an amount of 0.5 μl to a final concentration of 0.8 nM to 45 μM. For the measurement of living cells, the cells were stored at room temperature for 10 minutes using CellTiter-Glo cell viability reagent (Promega) after a certain period of time (SK-BR-3: 120 hours, BT-474: 120 hours, N-87: 72 hours, and HaCaT: 72 hours) post treatment with the compounds of Examples, and the luminescence intensity thereof was measured using a reader (SynergyNeo, Biotek). Each test was repeated three times.
The result values were calculated as a cell growth rate (%) compared to those of the control group. A graph was created using the GraphPad Prism version 5.0 program, and GI50 values were calculated.

Test [3] deals with HaCaT cells (EGFR expressing cell line). Briefly: HaCaT cell proliferation inhibitory activity (CellTiter-Glo, 72 hours). The conditions noted are these: Homo sapiens. Put shortly: as §1

As a reminder, the GI50 is the concentration that inhibits growth by half.

For `C=CC(=O)N1CC[C@H](Oc2cc3c(Nc4cc(-c5ccco5)ccc4OC)ncnc3cc2OC)[C@H](F)C1` [Example 154, 1-((3R,4S)-3-fluoro-4-((4-((5-(furan-2-yl)-2-methoxy-phenyl)amino)-7-methoxy-quinazolin-6-yl)oxy)piperidin-1-yl)prop-2-en-1-one], the GI50 in test [1], in test [2] and in test [3] was no more than 150 nM throughout.
`C=CC(=O)N1CCC(Oc2cc3c(Nc4cc(-c5ccc(F)c(N(C)C)c5F)ccc4OC)ncnc3cc2OC)CC1` [Example 155, 1-(4-((4-((3′-(dimethylamino)-2′,4′-difluoro-4-methoxy-[1,1′-biphenyl]-3-yl)amino)-7-methoxy-quinazolin-6-yl)oxy)piperidin-1-yl)prop-2-en-1-one]: the GI50 in test [1], in test [2] and in test [3] was no more than 150 nM throughout.
Turning to `C=CC(=O)N1CCC(Oc2cc3c(Nc4cc(-c5ccc(F)c(N)c5F)ccc4OC)ncnc3cc2OC)CC1` [Example 158, 1-(4-((4-((3′-amino-2′,4′-difluoro-4-methoxy-[1,1′-biphenyl]-3-yl)amino)-7-methoxy-quinazolin-6-yl)oxy)piperidin-1-yl)prop-2-en-1-one], the GI50 in test [1], in test [2] and in test [3] was no more than 150 nM each time.
Turning to `C=CC(=O)N1CCC(Oc2cc3c(Nc4cc(-c5ccc(F)c(N6CCC6)c5)ccc4OC)ncnc3cc2OC)CC1` [Example 159, 1-(4-((4-((3′-(azetidin-1-yl)-4′-fluoro-4-methoxy-[1,1′-biphenyl]-3-yl)amino)-7-methoxy-quinazolin-6-yl)oxy)piperidin-1-yl)prop-2-en-1-one], the values for the GI50 in test [1], in test [2] and in test [3] were no more than 150 nM, no more than 150 nM and 150 to 1000 nM, respectively.
On to `C=CC(=O)N1CCC(Oc2cc3c(Nc4cc(-c5ccc(F)c(O)c5)ccc4OC)ncnc3cc2OC)CC1` [Example 168, 1-(4-((4-((4′-fluoro-3′-hydroxy-4-methoxy-[1,1′-biphenyl]-3-yl)amino)-7-methoxy-quinazolin-6-yl)oxy)piperidin-1-yl)prop-2-en-1-one], for which the GI50 was no more than 150 nM in test [1], no more than 150 nM in test [2] and 150 to 1000 nM in test [3].
For `C=CC(=O)N1CCC(Oc2cc3c(Nc4cc(-c5cc(N)c(F)cc5F)ccc4OC)ncnc3cc2OC)CC1` [Example 170, 1-(4-((4-((5′-amino-2′,4′-difluoro-4-methoxy-[1,1′-biphenyl]-3-yl)amino)-7-methoxy-quinazolin-6-yl)oxy)piperidin-1-yl)prop-2-en-1-one], the GI50 in test [1], in test [2] and in test [3] was no more than 150 nM throughout.
As to `C=CC(=O)N1CC[C@@H](Oc2cc3c(Nc4cc(-c5ccco5)ccc4OC)ncnc3cc2OC)[C@H](F)C1` [Example 173, 1-((3R,4R)-3-fluoro-4-((4-((5-(furan-2-yl)-2-methoxyphenyl)amino)-7-methoxy-quinazolin-6-yl)oxy)piperidin-1-yl)prop-2-en-1-one], the 50% growth inhibitory concentration (GI50) in test [1], in test [2] and in test [3] was no more than 150 nM in each case.
For the compound `C=CC(=O)N1CCC(Oc2cc3c(Nc4cc(-c5scc6c5OCCO6)ccc4OC)ncnc3cc2OC)CC1` [Example 176, 1-(4-((4-((5-(2,3-dihydrothieno [3,4-b][1,4]dioxin-5-yl)-2-methoxyphenyl)amino)-7-methoxy-quinazolin-6-yl)oxy)piperidin-1-yl)prop-2-en-1-one], the GI50 in test [1], in test [2] and in test [3] was no more than 150 nM each time.
`C=CC(=O)N1CC[C@@H](Oc2cc3c(Nc4cc(-c5ccc(F)cc5F)ccc4OC)ncnc3cc2OC)[C@@H](F)C1` [Example 189, 1-((3S,4R)-4-((4-((2′,4′-difluoro-4-methoxy-[1,1′-biphenyl]-3-yl)amino)-7-methoxy-quinazolin-6-yl)oxy)-3-fluoropiperidin-1-yl)prop-2-en-1-one]: the GI50 in test [1], in test [2] and in test [3] was no more than 150 nM each time.
Consider `C=CC(=O)N1CCC(Oc2cc3c(Nc4cc(-c5c(F)cc(F)cc5F)ccc4OC)ncnc3cc2OC)CC1` [Example 190, 1-(4-((7-methoxy-4-((2′,4′,6′-trifluoro-4-methoxy-[1,1′-biphenyl]-3-yl)amino)quinazolin-6-yl)oxy)piperidin-1-yl)prop-2-en-1-one], for which the GI50 in test [1], in test [2] and in test [3] was no more than 150 nM throughout.
As for `C=CC(=O)N1CCC(Oc2cc3c(Nc4cc(-c5ccc(F)cc5Cl)ccc4OC)ncnc3cc2OC)CC1` [Example 191, 1-(4-((4-((2′-chloro-4′-fluoro-4-methoxy-[1,1′-biphenyl]-3-yl)amino)-7-methoxy-quinazolin-6-yl)oxy)piperidin-1-yl)prop-2-en-1-one], the GI50 in test [1], in test [2] and in test [3] was no more than 150 nM throughout.
As to `C=CC(=O)N1CCC(Oc2cc3c(Nc4cc(-c5cc(C(F)(F)F)ccc5F)ccc4OC)ncnc3cc2OC)CC1` [Example 192, 1-(4-((4-((2′-fluoro-4-methoxy-5′-(trifluoromethyl)-[1,1′-biphenyl]-3-yl)amino)-7-methoxy-quinazolin-6-yl)oxy)piperidin-1-yl)prop-2-en-1-one], the GI50 in test [1], in test [2] and in test [3] was no more than 150 nM in each case.
Consider `C=CC(=O)N1CCC(Oc2cc3c(Nc4cc(-c5cccc(C=C)c5)ccc4OC)ncnc3cc2OC)CC1` [Example 215, 1-(4-((7-methoxy-4-((4-methoxy-3′-vinyl-[1,1′-biphenyl]-3-yl)amino)quinazolin-6-yl)oxy)piperidin-1-yl)prop-2-en-1-one], for which the GI50 in test [1] is no more than 150 nM; in test [2] it was no more than 150 nM; in test [3] it was 150 to 1000 nM.
For `C=CC(=O)N1CCC(Oc2cc3c(Nc4cc(-c5cccc(NC(C)=O)c5)ccc4OC)ncnc3cc2OC)CC1` [Example 224, N-(3′-((6-((1-acryloyl-piperidin-4-yl)oxy)-7-methoxy-quinazolin-4-yl)amino)-4′-methoxy-[1,1′-biphenyl]-3-yl)acetamide], the concentration for 50% growth inhibition (GI50) in test [1], in test [2] and in test [3] was no more than 150 nM in each case.
Take `C=CC(=O)N1CCC(Oc2cc3c(Nc4cc(-c5cccc(N6CCC6)c5)ccc4OC)ncnc3cc2OC)CC1` [Example 225, 1-(4-((4-((3′-(azetidin-1-yl)-4-methoxy-[1,1′-biphenyl]-3-yl)amino)-7-methoxy-quinazolin-6-yl)oxy)piperidin-1-yl)prop-2-en-1-one]: the figures for the GI50 in test [1], in test [2] and in test [3] were 150 to 1000 nM, no more than 150 nM and greater than 1000 nM, respectively.
In the same order, the values of `C=CC(=O)N1CCC(Oc2cc3c(Nc4cc(-c5ccc(F)c(NC(C)=O)c5)ccc4OC)ncnc3cc2OC)CC1` [Example 226, N-(3′-((6-((1-acryloyl-piperidin-4-yl)oxy)-7-methoxy-quinazolin-4-yl)mino)-4-fluoro-4′-methoxy-[1,1'-biphenyl]-3-yl)acetamide] are no more than 150 nM, no more than 150 nM and greater than 1000 nM.
In the same order, the values of `C=CC(=O)N1CCC(Oc2cc3c(Nc4cc(-c5ccc(F)c(N(C)C)c5)ccc4OC)ncnc3cc2OC)CC1` [Example 229, 1-(4-((4-((3′-(dimethylamino)-4′-fluoro-4-methoxy-[1,1′-biphenyl]-3-yl)amino)-7-methoxy-quinazolin-6-yl)oxy)piperidin-1-yl)prop-2-en-1-one] are no more than 150 nM, no more than 150 nM and 150 to 1000 nM.

The record behind these values is patent US20240246940A1, “HETEROARYL DERIVATIVE COMPOUND AND USE THEREOF” (VORONOI INC., priority 2021, published 2024).
